{"source": "patent US20240335439A1", "about": "“USE OF AND METHOD FOR TELAPREVIR IN PREPARATION OF DRUG FOR TREATING AN ISCHEMIA/REPERFUSION INJURY AND CYTOPROTECTIVE DRUG” (THE THIRD XIANGYA HOSPITAL OF CENTRAL SOUTH UNIVERSITY, priority 2021, published 2024)", "key": {"SH-SY5Y nerve cells": {"test_system": "SH-SY5Y nerve cells", "experiment": "Hypoxia/reoxygenation injury of SH-SY5Y nerve cells, MTS viability and LDH release", "type": "cell-based", "details": "hypoxia 8 h / reoxygenation 24 h, telaprevir 1, 5, 10 μM, vs Hypoxia", "method": "The measurement followed the operating instructions of a commercially available lactate dehydrogenase kit (Shanghai Beyotime Biotechnology Co., Ltd., China). Groups were designed according to experimental requirements, and a background blank control group (without cells) and a maximum enzyme release group were additionally set. An LDH release reagent in a volume of 1/10 of the original medium was added to the maximum enzyme activity well group of the sample, and the culture continued for 1 hour. 120 μL of supernatant was pipetted from each well and added to a new 96-well plate, and 60 μL of LDH detection working solution was added to each well, followed by uniform mixing and incubation at room temperature for 30 minutes (in dark). The absorbance of the sample was measured at 490 nm. Calculation: LDH release rate of cells (%)=(absorbance of the drug treatment group-absorbance of the control group)/(absorbance of the maximum enzyme release group-absorbance of the control group)×100%. When the absorbance value of each group was calculated, the absorbance value of the background blank control group was first subtracted.\nSH-SY5Y nerve cells were purchased from the Xiangya Cell Bank of Central South University. […]\nCell viability was detected by MTS and cell injury was detected by an LDH release rate. […]"}, "[1]": {"test_system": "ischemic stroke mouse models", "experiment": "Ischemic stroke mouse model (MCAO 1 h, reperfusion 24 h)", "type": "in vivo, C57BL/6J mice", "details": "telaprevir 90 mg/kg intramuscular after 1 hour of ischemia and 1 hour of reperfusion", "method": "Experimental animals: 7-week-old male C57BL/6J mice. The experimental animals were raised for one week in an environment with a temperature of 25° C., a relative humidity of 60%, free drinking water, and timed and quantified feeding, and then administered according to the requirements of each experimental group.\nMethod for building an ischemic stroke mouse model: A cerebral ischemia/reperfusion mouse model was prepared by a middle cerebral artery occlusion (MCAO) method. The steps were as follows: after an 8-week-old male C57BL/6J mouse was anesthetized by intraperitoneal injection with 0.3% pentobarbital sodium (20 mL/kg), a left common carotid artery (CCA) was isolated, and a left external carotid artery (ECA) and internal carotid artery (ICA) were isolated upwards; the ECA and ICA were temporarily occluded with ophthalmic forceps, and a proximal end of the CCA was ligated; a knotted spare silk suture was placed at a distal end of the CCA, a small incision was cut below the suture, an occlusion suture was inserted into the internal carotid artery, arterial clips on the ECA and ICA were released, and the occlusion suture was delivered into the cranium along the ICA; and when encountering resistance, the silk suture was tightened, the occlusion suture was secured. […]\nNeurological function scores of mice were detected and cerebral infarct volumes were measured."}}}
{"smiles": "CCC[C@H](NC(=O)[C@@H]1[C@H]2CCC[C@H]2CN1C(=O)[C@@H](NC(=O)[C@@H](NC(=O)c1cnccn1)C1CCCCC1)C(C)(C)C)C(=O)C(=O)NC1CC1", "note": "[telaprevir]", "values": [{"measurement": "cell viability (MTS) of hypoxia/reoxygenation treated SH-SY5Y cells", "setting": "SH-SY5Y nerve cells; FIG. 5A", "value": "significantly inhibit a decrease"}, {"measurement": "LDH release rate of hypoxia/reoxygenation treated SH-SY5Y cells", "setting": "SH-SY5Y nerve cells; FIG. 5B", "value": "significantly inhibit"}, {"measurement": "neurological impairment symptoms (Longa neurological function score) of mice", "setting": "[1]; ##P<0.01 vs I/R, FIG. 3B", "value": "significantly improve"}, {"measurement": "cerebral infarct volume of mice (TTC staining)", "setting": "[1]; vs I/R, FIG. 3A", "value": "significantly decreased"}]}
